Type in all cases: cell-based
One assay has as its target T1, GSPT1 (Homo sapiens, UniProt P15170+Q96SW2).
T1 construct: GSPT1 degradation in the Hep3B cell line was investigated; endogenous in cells; host or cells: Hep3B
In words: GSPT1 degradation assay, Hep3B cell line. The conditions noted are these: HEP3B cells, 24 h, read-out: % of GSPT1 protein reduction. Summed up:
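Hep3B cells treated 24 h at 37 °C with compounds across a concentration range (0.25% DMSO final). GSPT1 level measured by western blot densitometry, normalized to loading control and expressed as % of DMSO control.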

In another assay the test system is KG-1a. In words: Cell viability, additional cell lines (CellTiter-Glo), KG-1a. The conditions noted are these: Homo sapiens, 72 h. On the procedure:
(§1) Tumor cells are grown at 37° C. in a humidified atmosphere with 5% CO2 in RPMI 1640 medium, supplemented with 10% (v/v) fetal calf serum and 50 μg/ml gentamicin for up to 20 passages, and are passaged once or twice weekly.
(§2) Cells are harvested from exponential phase cultures, counted and plated in 96 well flat-bottom microtiter plates at a cell density depending on the cell line's growth rate (4,000-20,000 cells/well depending on the cell line's growth rate, up to 60,000 for hematological cancer cell lines) in RPMI 1640 medium supplemented with 10% (v/v) fetal calf serum and 50 μg/ml gentamicin (140 μl/well). Cultures are incubated at 37° C. and 5% CO2 in a humidified atmosphere. After 24 h, 10 μl of test compounds or control medium are added and left on the cells for another 72 h. Compounds are serially diluted in DMSO, transferred in cell culture medium, and added to the assay plates by using a Tecan Freedom EVO 200 robotic platform. The DMSO concentration is kept constant at 0.3% v/v across the assay plate. Viability of cells is quantified by the CellTiter-Glo® cell viability assay (Promega G8462). After incubation of cells, 100 μl of CellTiter-Glo® One Solution Assay reagent are added to each well. Plates are shaken for 2 minutes to induce cell lysis and incubated for 20 minutes prior to reading luminescence (LU) by using the EnVision® Xcite multilabel plate reader (Perkin Elmer). […]
Background: Cellular ATP, detected with luciferase, serves as a proxy for viable cell number.

Another assay concerns Hep3B cells. The assay can be described thus: Cell survival clonogenic assay, Hep3B. The settings on record: 0.1-10 μM, crystal violet staining after 9-10 days. The protocol:
To determine the ability of a single cell to form a colony (defined as a cluster of at least 50 cells), Kelly and Hep3B cells were maintained in RPM11640 (Kelly) or EMEM (Hep3B) medium, supplemented with penicillin/streptomycin and 10% FBS. The cells were counted and seeded on the 6-well plates, at the density of 1×10^3 cells per well, the compounds to be tested were added at the desired concentration range, and the cells were cultured at 37° C./5% CO2. After colony formation (9-10 days), the cells were washed and treated with 6.0% glutaraldehyde and 0.5% crystal violet mix for 30 min., followed by rinsing with water and drying at room temperature (RT).

Another assay concerns the target T2, Ikaros (IKZF1) (Homo sapiens, UniProt Q13422+Q96SW2).
T2 construct: Ikaros degradation in the H929 cell line was investigated; endogenous in cells; host or cells: H929
The assay can be described thus: Ikaros degradation assay, H929 cell line. The settings on record: NCI-H929, H929 cells, 24 h, read-out: % of IKZF1 protein reduction. The method in brief: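 Cells were exposed to test compounds over a concentration range for 24 h at 37° C, 5% CO2, then lysed in RIPA buffer. Equal protein (BCA) was resolved by SDS-PAGE and immunoblotted. Band densitometry gave the protein levels used for evaluation.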

In a further assay the test system is 22Rv1. In words: Cell viability, additional cell lines (CellTiter-Glo), 22Rv1. The conditions noted are these: Homo sapiens, 22Rv1, 72 h. On the procedure:
as §1, §2

The next assay addresses T3, SALL4 (Homo sapiens, UniProt Q96SW2+Q9UJQ4).
T3 construct: SALL4 degradation in the Kelly cell line was investigated; endogenous in cells; host or cells: Kelly
The assay can be described thus: SALL4 degradation in the Kelly cell line, time course. The settings on record: Kelly cells, 0.1 μM, 3, 6, 12, 24, 48 and 72 h, FIG. 2. On the procedure: Kelly cells were maintained in RPMI-1640 medium, supplemented with penicillin/streptomycin and 10% Fetal Bovine Serum (FBS). Cells were seeded on 6- or 12-well plates, and the compounds to be tested were added at the desired concentration range. Final DMSO concentration was 0.25%. After incubation (37° C., 5% CO2) for a specified period of time, cells were harvested, washed and cell lysates were prepared using RIPA lysis buffer. The amount of protein was determined via BCA assay, and the appropriate quantity was then loaded on the precast gel for the protein separation. After primary and secondary Ab staining, the membranes were washed and signals developed. The densitometry analysis was implemented to obtain the numeric values used later in the protein level evaluation process.

The next assay concerns U-266. In words: Cell viability, additional cell lines (CellTiter-Glo), U-266. The settings on record: Homo sapiens, U-266, 72 h; read-out: Absolute IC50. The protocol: as §1, §2
The subject of the next assay is U-937. The assay can be described thus: Cell viability, additional cell lines (CellTiter-Glo), U-937. The conditions noted are these: Homo sapiens, U-937, 72 h; read-out: Absolute IC50. The protocol: as §1, §2
In the next assay the test system is UOC-M1. In words: Cell viability, additional cell lines (CellTiter-Glo), UOC-M1. The conditions noted are these: UOC-M1, 72 h. The protocol:
as §1, §2

[1] abbreviates: 9.5 μM, read-out: Test/Control viability at 9.5 μM.

Broadly, the IC50 is the midpoint of a concentration-inhibition curve.

T2 sequence (Q13422 whole entry): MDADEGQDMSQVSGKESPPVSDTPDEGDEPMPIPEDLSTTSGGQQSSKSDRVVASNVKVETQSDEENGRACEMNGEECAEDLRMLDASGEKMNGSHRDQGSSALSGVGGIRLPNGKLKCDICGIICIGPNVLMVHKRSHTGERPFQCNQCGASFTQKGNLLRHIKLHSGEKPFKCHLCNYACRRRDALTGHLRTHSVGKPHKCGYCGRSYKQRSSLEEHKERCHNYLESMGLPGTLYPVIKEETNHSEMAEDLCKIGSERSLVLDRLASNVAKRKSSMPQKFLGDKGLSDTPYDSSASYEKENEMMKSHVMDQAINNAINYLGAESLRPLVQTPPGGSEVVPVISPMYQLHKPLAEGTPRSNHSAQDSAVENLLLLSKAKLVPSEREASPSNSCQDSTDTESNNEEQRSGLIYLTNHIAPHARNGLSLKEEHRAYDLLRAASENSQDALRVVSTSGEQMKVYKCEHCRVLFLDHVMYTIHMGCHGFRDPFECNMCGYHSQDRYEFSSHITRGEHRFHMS
T2 sequence (Q96SW2 whole entry): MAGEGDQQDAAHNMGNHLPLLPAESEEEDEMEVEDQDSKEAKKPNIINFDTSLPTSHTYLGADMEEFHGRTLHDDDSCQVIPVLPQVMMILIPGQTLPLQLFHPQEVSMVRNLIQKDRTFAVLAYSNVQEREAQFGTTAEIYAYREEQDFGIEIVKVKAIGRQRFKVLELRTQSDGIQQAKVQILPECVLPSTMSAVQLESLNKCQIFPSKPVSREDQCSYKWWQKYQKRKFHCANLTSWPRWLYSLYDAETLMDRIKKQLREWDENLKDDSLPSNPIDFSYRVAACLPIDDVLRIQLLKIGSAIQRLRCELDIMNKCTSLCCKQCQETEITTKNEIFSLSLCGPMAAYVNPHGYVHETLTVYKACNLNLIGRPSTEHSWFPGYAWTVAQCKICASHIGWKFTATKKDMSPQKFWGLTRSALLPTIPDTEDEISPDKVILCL
T2 sequence (Q16531 whole entry partner): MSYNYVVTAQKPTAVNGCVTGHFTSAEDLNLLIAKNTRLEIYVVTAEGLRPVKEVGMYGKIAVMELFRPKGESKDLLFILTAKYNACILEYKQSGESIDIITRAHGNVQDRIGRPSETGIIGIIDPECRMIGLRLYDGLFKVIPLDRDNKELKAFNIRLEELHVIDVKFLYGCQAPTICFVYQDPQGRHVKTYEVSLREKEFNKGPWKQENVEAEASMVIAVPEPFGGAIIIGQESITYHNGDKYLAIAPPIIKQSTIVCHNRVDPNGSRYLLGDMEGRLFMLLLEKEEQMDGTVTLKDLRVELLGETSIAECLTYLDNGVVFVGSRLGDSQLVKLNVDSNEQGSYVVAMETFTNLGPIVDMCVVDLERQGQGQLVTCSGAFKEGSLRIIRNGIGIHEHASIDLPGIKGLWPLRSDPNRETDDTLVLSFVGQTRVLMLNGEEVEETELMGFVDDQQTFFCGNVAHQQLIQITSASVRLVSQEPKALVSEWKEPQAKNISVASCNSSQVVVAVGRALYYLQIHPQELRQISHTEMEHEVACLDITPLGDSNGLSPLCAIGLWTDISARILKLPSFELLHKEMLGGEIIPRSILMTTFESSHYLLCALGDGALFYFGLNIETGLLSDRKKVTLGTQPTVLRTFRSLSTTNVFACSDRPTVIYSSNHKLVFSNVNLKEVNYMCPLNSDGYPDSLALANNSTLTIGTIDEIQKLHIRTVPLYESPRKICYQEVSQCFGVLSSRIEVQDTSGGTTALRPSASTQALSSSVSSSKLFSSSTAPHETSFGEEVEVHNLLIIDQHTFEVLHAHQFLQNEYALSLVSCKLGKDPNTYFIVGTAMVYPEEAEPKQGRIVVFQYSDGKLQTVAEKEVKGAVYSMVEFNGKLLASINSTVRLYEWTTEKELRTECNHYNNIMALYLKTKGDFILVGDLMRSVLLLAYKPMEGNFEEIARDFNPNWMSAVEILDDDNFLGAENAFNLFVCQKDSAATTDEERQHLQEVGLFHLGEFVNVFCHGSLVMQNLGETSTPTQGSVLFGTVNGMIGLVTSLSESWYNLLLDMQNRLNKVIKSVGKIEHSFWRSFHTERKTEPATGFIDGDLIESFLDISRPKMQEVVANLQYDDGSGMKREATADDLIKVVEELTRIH
T1 sequence (P15170 whole entry): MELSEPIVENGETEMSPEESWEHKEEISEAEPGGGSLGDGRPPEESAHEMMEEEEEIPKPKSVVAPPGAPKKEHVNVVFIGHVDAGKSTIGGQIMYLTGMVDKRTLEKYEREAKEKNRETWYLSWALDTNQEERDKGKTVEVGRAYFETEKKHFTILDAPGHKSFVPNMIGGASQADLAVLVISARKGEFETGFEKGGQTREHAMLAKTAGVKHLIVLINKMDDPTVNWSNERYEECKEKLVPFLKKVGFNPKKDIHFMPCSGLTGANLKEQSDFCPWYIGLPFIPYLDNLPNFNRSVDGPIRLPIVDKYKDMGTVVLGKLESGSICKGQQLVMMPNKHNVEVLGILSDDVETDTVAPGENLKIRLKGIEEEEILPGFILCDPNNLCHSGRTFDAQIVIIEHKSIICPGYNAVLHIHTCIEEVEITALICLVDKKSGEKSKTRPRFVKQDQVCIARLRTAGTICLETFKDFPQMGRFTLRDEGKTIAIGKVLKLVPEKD
T1 sequence (Q96SW2 whole entry): as the sequence (Q96SW2 whole entry) above
T1 sequence (Q16531 whole entry partner): as the sequence (Q16531 whole entry partner) above
T3 sequence (Q9UJQ4 whole entry): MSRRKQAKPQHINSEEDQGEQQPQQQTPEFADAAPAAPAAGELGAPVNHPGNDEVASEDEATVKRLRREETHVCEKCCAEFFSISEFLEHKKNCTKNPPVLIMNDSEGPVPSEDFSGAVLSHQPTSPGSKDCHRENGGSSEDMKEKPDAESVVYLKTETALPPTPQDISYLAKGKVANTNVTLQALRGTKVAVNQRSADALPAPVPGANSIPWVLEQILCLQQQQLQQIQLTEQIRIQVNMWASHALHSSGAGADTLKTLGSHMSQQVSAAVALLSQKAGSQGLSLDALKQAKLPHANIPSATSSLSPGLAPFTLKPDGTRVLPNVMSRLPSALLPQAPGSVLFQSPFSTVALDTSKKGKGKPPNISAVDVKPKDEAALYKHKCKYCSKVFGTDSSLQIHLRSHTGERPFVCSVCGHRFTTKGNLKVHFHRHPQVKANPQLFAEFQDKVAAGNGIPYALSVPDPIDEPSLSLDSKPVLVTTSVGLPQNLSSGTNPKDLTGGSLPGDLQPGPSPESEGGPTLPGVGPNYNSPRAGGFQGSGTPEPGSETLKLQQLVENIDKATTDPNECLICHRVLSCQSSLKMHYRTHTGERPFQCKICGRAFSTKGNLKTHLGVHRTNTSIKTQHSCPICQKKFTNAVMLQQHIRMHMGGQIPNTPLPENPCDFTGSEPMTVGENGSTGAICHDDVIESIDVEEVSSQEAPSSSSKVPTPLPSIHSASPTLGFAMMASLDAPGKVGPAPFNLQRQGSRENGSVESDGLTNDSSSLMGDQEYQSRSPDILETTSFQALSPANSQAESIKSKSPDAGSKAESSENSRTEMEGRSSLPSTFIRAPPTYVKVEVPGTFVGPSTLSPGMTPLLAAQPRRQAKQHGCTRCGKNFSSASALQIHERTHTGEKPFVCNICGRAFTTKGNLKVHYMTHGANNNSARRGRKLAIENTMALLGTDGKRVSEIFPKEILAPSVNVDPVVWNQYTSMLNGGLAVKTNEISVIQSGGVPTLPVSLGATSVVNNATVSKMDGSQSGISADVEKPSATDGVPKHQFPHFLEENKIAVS
T3 sequence (Q96SW2 whole entry): as the sequence (Q96SW2 whole entry) above
T3 sequence (Q16531 whole entry partner): as the sequence (Q16531 whole entry partner) above

`NCc1ccc2c(c1)CN(C1CCC(=O)NC1=O)C2=O` (centres unmarked) [Compound 1, 3-(5-(aminomethyl)-1-oxoisoindolin-2-yl)piperidine-2,6-dione]: the inhibition at 1 µM at GSPT1 (1 uM) was 80 to 100%. In addition, the inhibition at 10 µM on GSPT1 (10 uM) lay within 80 to 100%; at Ikaros (IKZF1) (10 uM), 0 to 24%. Also, the results for the viability at 9.5 µM in the assay on KG-1a (setting [1]), in the assay with 22Rv1 (setting [1]) and with UOC-M1 (setting [1]) were not above 30%, not above 60% and not above 30%, respectively. Further, the IC50 with KG-1a (read-out: Absolute IC50) is not above 0.1 µM; in the assay on 22Rv1 (read-out: Absolute IC50), not below 30 µM; in the assay on U-266 it was more than 30 µM; with U-937, more than 30 µM; in the assay with UOC-M1 (read-out: Absolute IC50) it was not above 0.1 µM. Further, in the assay on Hep3B cells, the “survival of the cells (colony formation)” value is reported as “in most cases inhibited”. Besides, at Ikaros (IKZF1) (20 uM), the inhibition at 20 µM lay in the range of 0 to 24%. Further, the “SALL4 degradation time course” value at SALL4 was “more rapidly and effectively than lenalidomide”.

The values above are taken from patent publication US20240294489A1 (Captor Therapeutics S.A., priority 2020, published 2024).
